Test results as given in ChEMBL document CHEMBL5500331, “Discovery of novel peptide-dehydroepiandrosterone hybrids inducing endoplasmic reticulum stress with effective in vitro and in vivo anti-melanoma activities” (Eur J Med Chem, 2024).
Activity calls are given as the source filed them. No cut-off for these calls is given here.

Assays:
B16 [1] = assay: Induction of endoplasmic reticulum (ER) stress in mouse B16 cells assessed as increase in CHOP expression at 9.70 uM measured after 48 hrs by Western blot analysis; assay type: functional, cell-based; conditions: dose 9.7 µM
B16 [2] = assay: Antiproliferative activity against mouse B16 cells measured after 48 hrs by MTT assay; assay type: functional, cell-based; conditions: B16, 48 h
B16 [3] = assay: Induction of apoptosis in mouse B16 cells at 4.85 uM measured after 48 hrs by annexin-V/PI double staining based flow cytometry analysis; assay type: functional, cell-based
B16 [4] = assay: Upregulation of caspase 3 expression in mouse B16 cells at 9.70 uM measured after 48 hrs by Western blot analysis; assay type: functional, cell-based; conditions: dose 9.7 µM
B16 [5] = assay: Upregulation of caspase 8 expression in mouse B16 cells at 9.70 uM measured after 48 hrs by Western blot analysis; assay type: functional, cell-based; conditions: dose 9.7 µM
B16 [6] = assay: Upregulation of […] expression in mouse B16 cells at 9.70 uM measured after 48 hrs by Western blot analysis; assay type: functional, cell-based; conditions: dose 9.7 µM
B16 [7] = assay: Downregulation of Bcl-2 expression in mouse B16 cells at 9.70 uM measured after 48 hrs by Western blot analysis; assay type: functional, cell-based; conditions: dose 9.7 µM
B16 [8] = assay: Induction of endoplasmic reticulum (ER) stress in mouse B16 cells assessed as increase in […] expression at 9.70 uM measured after 48 hrs by Western blot analysis; assay type: functional, cell-based; conditions: dose 9.7 µM
B16 [9] = assay: Induction of endoplasmic reticulum (ER) stress in mouse B16 cells assessed as decrease in alix expression at 9.70 uM measured after 48 hrs by Western blot analysis; assay type: functional, cell-based; conditions: dose 9.7 µM
B16 [10] = assay: Induction of endoplasmic reticulum (ER) stress in mouse B16 cells assessed as appearance of damaged ER at 9.70 uM measured after 24 hrs by confocal microscopy based analysis; assay type: functional, cell-based; conditions: dose 9.7 µM
B16 [11] = assay: Induction of endoplasmic reticulum (ER) stress in mouse B16 cells assessed as appearance of vacuolated ER at 9.70 uM measured after 24 hrs by confocal microscopy based analysis; assay type: functional, cell-based; conditions: dose 9.7 µM
B16 [12] = assay: Induction of endoplasmic reticulum (ER) stress in mouse B16 cells assessed as fragmented distribution at 25 uM measured after 24 hrs by confocal microscopy based analysis; assay type: functional, cell-based
[13] = Inhibition of cell migration in mouse B16 cells at 9.70 uM measured after 48 hrs by scratch-wound healing assay relative to control; assay type: functional
[14] = Inhibition of cell migration in mouse B16 cells at 9.70 uM measured after 24 hrs by crystal violet staining based analysis relative to control; assay type: functional
[15] = Inhibition of cell invasion in mouse B16 cells at 9.70 uM measured after 24 hrs by crystal violet staining based analysis relative to control; assay type: functional
[16] = Toxicity in Kunming mouse assessed as effect on body weight at 60 mg/kg, IG measured after 21 days; assay type: organism-based; conditions: in vivo, po, 504 h, time 21 day
[17] = Toxicity in Kunming mouse assessed as effect on body weight at 40 mg/kg, IG measured after 21 days; assay type: organism-based; conditions: in vivo, po, 504 h, time 21 day
[18] = Toxicity in Kunming mouse assessed as effect on body weight at 80 mg/kg, IG measured after 21 days; assay type: organism-based; conditions: in vivo, po, 504 h, time 21 day
[19] = Toxicity in Kunming mouse assessed as increase in survival rate at 60 mg/kg, IG measured after 27 days relative to control; assay type: organism-based; conditions: in vivo, po, time 27 day
[20] = Toxicity in Kunming mouse assessed as increase in survival rate at 80 mg/kg, IG measured after 27 days relative to control; assay type: organism-based; conditions: in vivo, po, time 27 day
B16 [21] = assay: Anti-melanoma activity against mouse B16 cells xenografted in Kunming mouse model assessed as reduction in tumor volume at 40 to 80 mg/kg, IG measured after 5 days; assay type: functional, organism-based; conditions: dose 40-80 mg/kg, time 5.0 day
B16 [22] = assay: Anti-melanoma activity against mouse B16 cells xenografted in Kunming mouse model assessed as reduction in tumor volume at 60 to 80 mg/kg, IG measured after 7 to 27 days; assay type: functional, organism-based; conditions: dose 60-80 mg/kg, time 7-27 day
B16 [23] = assay: Anti-melanoma activity against mouse B16 cells xenografted in Kunming mouse model assessed as reduction in tumor volume at 40 mg/kg, IG measured after 7 to 27 days; assay type: functional, organism-based; conditions: time 7-27 day
B16 [24] = assay: Anti-melanoma activity against mouse B16 cells xenografted in Kunming mouse model assessed as reduction in tumor volume at 60 to 80 mg/kg, IG measured after 11 days relative to control; assay type: functional; set-up: scale not given: the % may be the effect or the level left; conditions: dose 60-80 mg/kg, time 11 day
B16 [25] = assay: Anti-melanoma activity against mouse B16 cells xenografted in Kunming mouse model assessed as reduction in tumor volume at 40 mg/kg, IG measured after 19 days; assay type: functional, organism-based; conditions: time 19.0 day
B16 [26] = assay: Anti-melanoma activity against mouse B16 cells xenografted in Kunming mouse model assessed as suppression of tumor weight at 60 mg/kg, IG measured every two days for 27 days (reference value: 10.61+/-1.05g); assay type: functional; conditions: time 27 day
B16 [27] = assay: Anti-melanoma activity against mouse B16 cells xenografted in Kunming mouse model assessed as suppression of tumor weight at 80 mg/kg, IG measured every two days for 27 days (reference value: 10.61+/-1.05g); assay type: functional; conditions: time 27 day
B16 [28] = assay: Anti-melanoma activity against mouse B16 cells xenografted in Kunming mouse model assessed as inhibition of tumor weight at 60 mg/kg, IG measured every two days for 27 days relative to control; assay type: functional; set-up: scale not given: the % may be the effect or the level left; conditions: time 27 day
B16 [29] = assay: Anti-melanoma activity against mouse B16 cells xenografted in Kunming mouse model assessed as inhibition of tumor weight at 80 mg/kg, IG measured every two days for 27 days relative to control; assay type: functional; set-up: scale not given: the % may be the effect or the level left; conditions: time 27 day
B16 [30] = assay: Anti-melanoma activity against mouse B16 cells xenografted in Kunming mouse model assessed as inhibition of tumor weight at 40 mg/kg, IG measured every two days for 27 days relative to control; assay type: functional; set-up: scale not given: the % may be the effect or the level left; conditions: time 27 day
B16 [31] = assay: Anti-melanoma activity against mouse B16 cells xenografted in Kunming mouse model assessed as suppression of tumor weight at 40 mg/kg, IG measured every two days for 27 days (reference value: 10.61+/-1.05g); assay type: functional; conditions: time 27 day
B16 [32] = assay: Anti-melanoma activity against mouse B16 cells xenografted in Kunming mouse model assessed as increase in caspase 3 expression at 40 to 60 mg/kg, IG measured after 27 days by IHC staining based analysis; assay type: functional, organism-based; conditions: dose 40-60 mg/kg, time 27.0 day
B16 [33] = assay: Anti-melanoma activity against mouse B16 cells xenografted in Kunming mouse model assessed as increase in caspase 8 expression at 40 to 60 mg/kg, IG measured after 27 days by IHC staining based analysis; assay type: functional, organism-based; conditions: dose 40-60 mg/kg, time 27.0 day
B16 [34] = assay: Anti-melanoma activity against mouse B16 cells xenografted in Kunming mouse model assessed as increase in bax expression at 40 to 60 mg/kg, IG measured after 27 days by IHC staining based analysis; assay type: functional, organism-based; conditions: dose 40-60 mg/kg, time 27.0 day
B16 [35] = assay: Anti-melanoma activity against mouse B16 cells xenografted in Kunming mouse model assessed as decrease in bcl-2 level at 40 to 60 mg/kg, IG measured after 27 days by IHC staining based analysis; assay type: functional, organism-based; conditions: dose 40-60 mg/kg, time 27.0 day
[36] = Antiproliferative activity against human Prostate tumor cell line at 25 uM measured after 48 hrs by MTT assay relative to control; assay type: functional
[37] = Drug metabolism in mouse plasma assessed as abiraterone Cmax at 20 mg/kg, IG; assay type: ADME, organism-based; conditions: in vivo, po
[38] = Drug metabolism in mouse plasma assessed as abiraterone Tmax at 20 mg/kg, IG; assay type: ADME, organism-based; conditions: in vivo, po

**Q.** Which Activity (B16 [1]) does the source give for `CC(C)[C@H](NC(=O)CN)C(=O)O[C@H]1CC[C@@]2(C)C(=CC[C@@H]3[C@@H]2CC[C@]2(C)C(c4cccnc4)=CC[C@@H]32)C1` here?
**A.** Its Activity is “Active”.

**Q.** What about the IC50 (B16 [2]) of the same compound?
**A.** Its IC50 is 9.7 µM.

**Q.** And the Activity (B16 [3])?
**A.** The Activity was “Active”.

**Q.** What about the Activity (B16 [4]) of the same compound?
**A.** The Activity was “Active”.

**Q.** What about the Activity (B16 [5]) of the same compound?
**A.** The Activity was “Active”.

**Q.** And the Activity (B16 [6])?
**A.** Its Activity is “Active”.

**Q.** What about the Activity (B16 [7]) of the same compound?
**A.** Its Activity is “Active”.

**Q.** What about the Activity (B16 [8]) of the same compound?
**A.** Its Activity is “Active”.

**Q.** And the Activity (B16 [9])?
**A.** The Activity was “Active”.

**Q.** What about the Activity (B16 [10]) of the same compound?
**A.** Its Activity is “Active”.

**Q.** And the Activity (B16 [11])?
**A.** Its Activity is “Active”.

**Q.** What about the Activity (B16 [12]) of the same compound?
**A.** Its Activity is “Active”.

**Q.** And the inhibition at 9.7 µM [13]?
**A.** The inhibition at 9.7 µM was 66%.

**Q.** And the inhibition at 9.7 µM [14]?
**A.** The inhibition at 9.7 µM was 70%.

**Q.** And the inhibition at 9.7 µM [15]?
**A.** Its inhibition at 9.7 µM is ~65%.

**Q.** What about the Activity [16] of the same compound?
**A.** The Activity was “Non-Toxic”.

**Q.** What about the Activity [17] of the same compound?
**A.** Its Activity is “Toxic”.

**Q.** And the Activity [18]?
**A.** The Activity was “Non-Toxic”.

**Q.** And the survival at 648 h [19]?
**A.** Its survival at 648 h is 100%.

**Q.** What about the survival at 648 h [20] of the same compound?
**A.** Its survival at 648 h is 100%.

**Q.** What about the Activity (B16 [21]) of the same compound?
**A.** The Activity was “Active”.

**Q.** And the Activity (B16 [22])?
**A.** The Activity was “Active”.

**Q.** And the Activity (B16 [23])?
**A.** The Activity was “inactive”.

**Q.** And the Activity (B16 [24])?
**A.** Its Activity is 100%.

**Q.** What about the Activity (B16 [25]) of the same compound?
**A.** The Activity was “Active”.

**Q.** What about the Activity (B16 [26]) of the same compound?
**A.** The Activity was 0.1 g.

**Q.** And the Activity (B16 [27])?
**A.** The Activity was 0.23 g.

**Q.** What about the Activity (B16 [28]) of the same compound?
**A.** Its Activity is 98.12%.

**Q.** What about the Activity (B16 [29]) of the same compound?
**A.** The Activity was 99.06%.

**Q.** And the Activity (B16 [30])?
**A.** Its Activity is 83.96%.

**Q.** And the Activity (B16 [31])?
**A.** The Activity was 1.7 g.

**Q.** What about the Activity (B16 [32]) of the same compound?
**A.** Its Activity is “Active”.

**Q.** And the Activity (B16 [33])?
**A.** Its Activity is “Active”.

**Q.** And the Activity (B16 [34])?
**A.** Its Activity is “Active”.

**Q.** What about the Activity (B16 [35]) of the same compound?
**A.** Its Activity is “Active”.

**Q.** What about the Activity [36] of the same compound?
**A.** Its Activity is 13.6%.

**Q.** And the Cmax [37]?
**A.** The Cmax was 55.8 ng/mL.

**Q.** And the Tmax [38]?
**A.** The Tmax was 8 h.
